Five compounds from BindingDB's records for doi:10.1016/s0960-894x(99)00397-2 (Chungnam National University, 1999) can be followed below.

The assay deals with DNA topoisomerase 1 (Bos taurus). Nature of the assay: Compound was evaluated for the inhibition of DNA topoisomerase-1 of calf thymus.
On to `COc1cc(C(C)O)c(OC)c2c1C(=O)C=CC2=O` (stereo not given) [6-(1-Hydroxy-ethyl)-5,8-dimethoxy-[1,4]naphthoquinone], for which half-maximal inhibition (IC50) was put at 111 µM.

As for `CCCCCCCC(O)c1cc(OC)c2c(c1OC)C(=O)C=CC2=O` (stereo not given) [6-(1-Hydroxy-octyl)-5,8-dimethoxy-[1,4]naphthoquinone], it took 43.9 µM to reach half-maximal inhibition (IC50).

The compound `CCCCCC(O)c1cc(OC)c2c(c1OC)C(=O)C=CC2=O` (stereo not given) [6-(1-Hydroxy-hexyl)-5,8-dimethoxy-[1,4]naphthoquinone] yielded an IC50 of 39 µM.

As to `CCCCCCC(O)c1cc(OC)c2c(c1OC)C(=O)C=CC2=O` (stereo not given) [6-(1-Hydroxy-heptyl)-5,8-dimethoxy-[1,4]naphthoquinone], the IC50 came to 30.1 µM.

`CCC(O)c1cc(OC)c2c(c1OC)C(=O)C=CC2=O` (stereo not given) [6-(1-Hydroxy-propyl)-5,8-dimethoxy-[1,4]naphthoquinone] showed an IC50 of 122 µM.
